{"source": "patent US20070015232A1", "about": "“Mitotic index assay” (DiscoveRx, Inc., priority 2005, published 2007)", "key": {"[1]": {"system": "CHO-K1+EA-NLS/NRS+GR-PL cells", "experiment": "EFC mitotic index assay, CHO-K1+EA-NLS/NRS+GR-PL cells, antibiotic selected pool (DX M19/GR pool)", "format": "cell-based", "details": "for Avg luminescence readout / R1 luminescence readout / R3 luminescence readout / Ratio (Avg vs 0 conc): 24 hours, 30 min read", "method": "(§1) In all experiments described, 20,000 cells/well were plated in a 96 well Corning clear bottom white plate in a total volume of 100 μL. The cells were treated for 24 hours with 5 μL of either the appropriate vehicle control or varying concentrations of the six compounds listed above. The next day, 100 μL of Tropix/ABI Gal screen cell lysis buffer/substrate mixture (24:1 ratio of component) was added to the cells/media and the plate was read on the Victor II luminescent plate reader at 30, 60 and 120 minutes after the lysis/substrate addition.\n(§2) The initial test of the cell cycle arresting compounds was performed on a double stable cell line having both of the constructs expressing the EA-NLS/NRS and GR-PL. (PL is β-galactosidase enzyme donor fragment and EA is the enzyme acceptor fragment available from DiscoveRx, Fremont, CA.). The parental line, C2C12 is derived from mouse muscle cells. In the experiments in which EA-NLS/NRS and GR-PL are expressed in the C2C12 parental cell line, the constructs were generated by subcloning the human GR sequence into a MFG-based retroviral vector that had been molecularly altered in a lab at Stanford. An MFG vector is described in U.S. Pat. No. 6,544,771. The EA-NLS/NRS fragment was subcloned into a wzl-based retroviral vector again molecularly altered in a lab at Stanford. In the experiments performed using a CHO-K1 parental cell line background the EA-NLS/NRS was subcloned into the Kpn I and Xba I sites of pcDNA3.1 Hygro vector from Invitrogen (catalog #V870-20). The plasmid was introduced into the cells via FuGene6 (Roche) transfection reagent. Cells were selected in the presence of 250 μg/mL of Hygromycin and single cell clones isolated that expressed the EA-NLS/NRS. The human GR gene was cloned by PCR and subcloned into the Xho I and Bam HI sites of the DiscoveRx vector-pCMV-myc-PL (C3). The plasmid was introduced into the selected EA-NLS/NRS expressing clone isolated above by FuGene 6 transfection. Another round of screening in the presence of 300-500 μg/mL of G418 was used to select GR-PL transfected clones. Clonal selection was performed to finally identify the clone that was used in these studies. In the studies using the CHO-K1+cyto-EA and cJUN-PL, the same Invitrogen pcDNA3.1 Hygro vector was used to express EA. In this case, the EA fragment was subcloned into the Kpn I/Not I sites of pcDNA3.1 Hygro. The plasmid DNA was introduced as described above using FuGene6 reagent. Cells were selected in the presence of 250 μg/mL of hygromycin and clonal selection was performed. The c-Jun gene was generated by PCR using an existing template copy of the gene and then subcloned into the Xho I/Bam HI sites of pCMV-PL-myc (C3).\nIn the next experiment, an antibiotic selected pool population of CHO-K1 cells that express EA-NLS/NRS and GR-PL were tested with the same six set of cell cycle blocking compounds. […] FIGS. 2a and 2b show the immunofluorescence localization of EA and GR-PL in that the blue DAPI nuclear staining can be seen to be concentrated in the nucleus, while the green fluorescein stain on the antibody (from Abcam PLC) to the glucocorticoid receptor is seen in the cytoplasm. […] Again, six tables are presented one for each of the six drugs tested.\nThis only occurs with compounds that block the cells in mitosis, allowing EA and ProLabel to complement."}, "[2]": {"system": "CHO-K1+cyto-EA cells transfected with cJUN-PL", "experiment": "EFC mitotic index assay, CHO-K1+cyto-EA cells transiently transfected with cJUN-PL", "format": "cell-based", "details": "for Avg luminescence readout / R1 luminescence readout / R3 luminescence readout / Ratio (Avg vs 0 conc): overnight", "method": "as §2\nTo further test the concept of sequestering of one β-galactosidase enzyme fragment in the nucleus (in this case PL) while localizing the other component in the cytoplasm (in this case EA) the following experiment was carried out. […] The cyto-EA cells were transiently transfected with cJUN-PL plasmid DNA. Two days after the transfection, the cells were re-plated into a 96 well Corning white clear bottom multiwell plate at 20,000 cells/well. The cells were allowed to adhere overnight and the next day were treated with titrating concentrations of the six different cell cycle blocking compounds. The incubation was carried out overnight. The next day the media was removed from the cells and 100 μL of Tropix/ABI Gal screen cell lysis/substrate reagent was added to the cells."}, "[3]": {"system": "C2C12+EA-NLS/NRS+GR-PL cells", "experiment": "EFC mitotic index assay, C2C12+EA-NLS/NRS+GR-PL cells (Stanford GR cells)", "format": "cell-based, mouse", "details": "24 hours, 30 min read", "method": "as §1, §2"}}}
{"smiles": "C[C@@]1(CO)[C@H](O)CC[C@@]2(C)[C@H]1CC[C@H]1C[C@@H]3C[C@@]12CC[C@]3(O)CO", "note": "[Aphidicolin, aphidicolin]", "values": [{"measurement": "Avg luminescence readout", "setting": "[1]; 0.3 μM", "result": 5508}, {"measurement": "R1 luminescence readout", "setting": "[1]; 0.3 μM", "result": 5478}, {"measurement": "R3 luminescence readout", "setting": "[1]; 0.3 μM", "result": 5469}, {"measurement": "Ratio (Avg vs 0 conc)", "setting": "[1]; 0.3 μM", "result": 1}, {"measurement": "Avg luminescence readout", "setting": "[1]; 1 μM", "result": 5604}, {"measurement": "R1 luminescence readout", "setting": "[1]; 1 μM", "result": 5656}, {"measurement": "R3 luminescence readout", "setting": "[1]; 1 μM", "result": 5491}, {"measurement": "Ratio (Avg vs 0 conc)", "setting": "[1]; 1 μM", "result": 1}, {"measurement": "Avg luminescence readout", "setting": "[1]; 3.3 μM", "result": 4561}, {"measurement": "R1 luminescence readout", "setting": "[1]; 3.3 μM", "result": 4392}, {"measurement": "R3 luminescence readout", "setting": "[1]; 3.3 μM", "result": 4749}, {"measurement": "Ratio (Avg vs 0 conc)", "setting": "[1]; 3.3 μM", "result": 0}, {"measurement": "Avg luminescence readout", "setting": "[1]; 10.0 μM", "result": 6941}, {"measurement": "R1 luminescence readout", "setting": "[1]; 10.0 μM", "result": 7213}, {"measurement": "R3 luminescence readout", "setting": "[1]; 10.0 μM", "result": 6651}, {"measurement": "Ratio (Avg vs 0 conc)", "setting": "[1]; 10.0 μM", "result": 1}, {"measurement": "increase in EFC activity (in words)", "setting": "[1]; overnight treatment", "result": "did not cause an increase in EFC activity"}, {"measurement": "Avg luminescence readout", "setting": "[2]; 1.5 μg/mL", "result": 7545}, {"measurement": "R1 luminescence readout", "setting": "[2]; 1.5 μg/mL", "result": 7218}, {"measurement": "R3 luminescence readout", "setting": "[2]; 1.5 μg/mL", "result": 7576}, {"measurement": "Ratio (Avg vs 0 conc)", "setting": "[2]; 1.5 μg/mL", "result": 0.9}, {"measurement": "Avg luminescence readout", "setting": "[2]; 4.4 μg/mL", "result": 9193}, {"measurement": "R1 luminescence readout", "setting": "[2]; 4.4 μg/mL", "result": 9492}, {"measurement": "R3 luminescence readout", "setting": "[2]; 4.4 μg/mL", "result": 9245}, {"measurement": "Ratio (Avg vs 0 conc)", "setting": "[2]; 4.4 μg/mL", "result": 1.1}, {"measurement": "Avg luminescence readout", "setting": "[2]; 13.3 μg/mL", "result": 7027}, {"measurement": "R1 luminescence readout", "setting": "[2]; 13.3 μg/mL", "result": 6677}, {"measurement": "R3 luminescence readout", "setting": "[2]; 13.3 μg/mL", "result": 7784}, {"measurement": "Ratio (Avg vs 0 conc)", "setting": "[2]; 13.3 μg/mL", "result": 0.8}, {"measurement": "Avg luminescence readout", "setting": "[2]; 40.0 μg/mL", "result": 9131}, {"measurement": "R1 luminescence readout", "setting": "[2]; 40.0 μg/mL", "result": 8645}, {"measurement": "R3 luminescence readout", "setting": "[2]; 40.0 μg/mL", "result": 9818}, {"measurement": "Ratio (Avg vs 0 conc)", "setting": "[2]; 40.0 μg/mL", "result": 1.0}, {"measurement": "increase in EFC activity (in words)", "setting": "[2]; overnight incubation", "result": "negligible increase in EFC activity"}, {"measurement": "Avg luminescence readout", "setting": "[3]; 0.3 μM", "result": 3444}, {"measurement": "R1 luminescence readout", "setting": "[3]; 0.3 μM", "result": 3081}, {"measurement": "R3 luminescence readout", "setting": "[3]; 0.3 μM", "result": 3500}, {"measurement": "Ratio (Avg vs 0 conc)", "setting": "[3]; 0.3 μM", "result": 1}, {"measurement": "Avg luminescence readout", "setting": "[3]; 1 μM", "result": 3307}, {"measurement": "R1 luminescence readout", "setting": "[3]; 1 μM", "result": 3250}, {"measurement": "R3 luminescence readout", "setting": "[3]; 1 μM", "result": 3388}, {"measurement": "Ratio (Avg vs 0 conc)", "setting": "[3]; 1 μM", "result": 1}, {"measurement": "Avg luminescence readout", "setting": "[3]; 3.3 μM", "result": 3132}, {"measurement": "R1 luminescence readout", "setting": "[3]; 3.3 μM", "result": 3171}, {"measurement": "R3 luminescence readout", "setting": "[3]; 3.3 μM", "result": 3105}, {"measurement": "Ratio (Avg vs 0 conc)", "setting": "[3]; 3.3 μM", "result": 1}, {"measurement": "Avg luminescence readout", "setting": "[3]; 10.0 μM", "result": 3413}, {"measurement": "R1 luminescence readout", "setting": "[3]; 10.0 μM", "result": 2827}, {"measurement": "R3 luminescence readout", "setting": "[3]; 10.0 μM", "result": 3765}, {"measurement": "Ratio (Avg vs 0 conc)", "setting": "[3]; 10.0 μM", "result": 1}]}
{"smiles": "CC(=O)O[C@H]1C(=O)[C@@]2(C)[C@H]([C@H](OC(=O)c3ccccc3)[C@]3(O)C[C@H](OC(=O)[C@H](O)[C@@H](NC(=O)c4ccccc4)c4ccccc4)C(C)=C1C3(C)C)[C@]1(OC(C)=O)CO[C@@H]1C[C@@H]2O", "note": "[Taxol, paclitaxel]", "values": [{"measurement": "Avg luminescence readout", "setting": "[1]; 0.03 μM", "result": 7167}, {"measurement": "R1 luminescence readout", "setting": "[1]; 0.03 μM", "result": 7314}, {"measurement": "R3 luminescence readout", "setting": "[1]; 0.03 μM", "result": 6605}, {"measurement": "Ratio (Avg vs 0 conc)", "setting": "[1]; 0.03 μM", "result": 1}, {"measurement": "Avg luminescence readout", "setting": "[1]; 0.1 μM", "result": 9961}, {"measurement": "R1 luminescence readout", "setting": "[1]; 0.1 μM", "result": 10680}, {"measurement": "R3 luminescence readout", "setting": "[1]; 0.1 μM", "result": 9258}, {"measurement": "Ratio (Avg vs 0 conc)", "setting": "[1]; 0.1 μM", "result": 2}, {"measurement": "Avg luminescence readout", "setting": "[1]; 0.3 μM", "result": 9506}, {"measurement": "R1 luminescence readout", "setting": "[1]; 0.3 μM", "result": 11709}, {"measurement": "R3 luminescence readout", "setting": "[1]; 0.3 μM", "result": 7904}, {"measurement": "Ratio (Avg vs 0 conc)", "setting": "[1]; 0.3 μM", "result": 1}, {"measurement": "Avg luminescence readout", "setting": "[1]; 1 μM", "result": 15972}, {"measurement": "R1 luminescence readout", "setting": "[1]; 1 μM", "result": 17111}, {"measurement": "R3 luminescence readout", "setting": "[1]; 1 μM", "result": 14344}, {"measurement": "Ratio (Avg vs 0 conc)", "setting": "[1]; 1 μM", "result": 2}, {"measurement": "Avg luminescence readout", "setting": "[3]; 0.03 μM", "result": 3094}, {"measurement": "R1 luminescence readout", "setting": "[3]; 0.03 μM", "result": 2624}, {"measurement": "R3 luminescence readout", "setting": "[3]; 0.03 μM", "result": 3543}, {"measurement": "Ratio (Avg vs 0 conc)", "setting": "[3]; 0.03 μM", "result": 1}, {"measurement": "Avg luminescence readout", "setting": "[3]; 0.1 μM", "result": 3684}, {"measurement": "R1 luminescence readout", "setting": "[3]; 0.1 μM", "result": 2602}, {"measurement": "R3 luminescence readout", "setting": "[3]; 0.1 μM", "result": 4340}, {"measurement": "Ratio (Avg vs 0 conc)", "setting": "[3]; 0.1 μM", "result": 1}, {"measurement": "Avg luminescence readout", "setting": "[3]; 0.3 μM", "result": 3213}, {"measurement": "R1 luminescence readout", "setting": "[3]; 0.3 μM", "result": 2638}, {"measurement": "R3 luminescence readout", "setting": "[3]; 0.3 μM", "result": 3639}, {"measurement": "Ratio (Avg vs 0 conc)", "setting": "[3]; 0.3 μM", "result": 1}, {"measurement": "Avg luminescence readout", "setting": "[3]; 1 μM", "result": 3692}, {"measurement": "R1 luminescence readout", "setting": "[3]; 1 μM", "result": 3016}, {"measurement": "R3 luminescence readout", "setting": "[3]; 1 μM", "result": 4104}, {"measurement": "Ratio (Avg vs 0 conc)", "setting": "[3]; 1 μM", "result": 1}]}
